As usually defined, the melting point is the temperature of the solid-liquid transition.

The subject of one data set is astrocytes. Description: Astrocyte scratch wound assay (in vitro assay for astrogliosis). It is filed as cell-based, C57BL/6 mice. The note with it: cytokines (TGF-α, LIF, and IFN) plus 10 nM compound; serum free=1. The procedure:
Assay Astrocytes are prepared from the cerebral cortex of neonatal C57BL/6 mice(P1-P2). Cells are maintained in Dulbecco's modified Eagle's medium with 10% FBS. 4-7 weeks old astrocytes are plated to confluence in 2 well chamber slides coated with poly-D-lysine for the scratch wound assay and serum starved. 48 hrs after serum starvation, the monolayer of astrocytes is scratched with sterile 200 μl tips and washed twice with PBS to get rid of cell debris. Conditioned medium (±cytokines) is added to the wounded astrocytes. The microscopic images of the scratch is captured at a magnification of 10× right after scratch and considered as time point 0.24 hrs, 48 hrs or 72 hrs after scratch, the same region of scratch is imaged and fixed with methanol containing 1 μg/ml of DAPI to monitor migration and proliferation of astrocytes.
On to `Cc1ccc(C(=O)Nc2cccc(C(F)(F)F)c2)cc1-c1ccc2ccncc2c1` [Compound 3, 3-Isoquinolin-7-yl-4-methyl-N-(3-trifluoromethyl-phenyl)-benzamide], for which the “astrocyte migration induced by cytokines (relative area of cell migration compared to control)” value is “block astrocyte migration induced by cytokines”.

The target in a further data set is T1, EphA4 receptor (Mus musculus, UniProt Q03137).
T1 construct: The brains were removed and one half of each brain was weighed and homogenized; from tissue; host or cells: mouse brain (NMRI mice), homogenate
T1 sequence (Q03137 20-986): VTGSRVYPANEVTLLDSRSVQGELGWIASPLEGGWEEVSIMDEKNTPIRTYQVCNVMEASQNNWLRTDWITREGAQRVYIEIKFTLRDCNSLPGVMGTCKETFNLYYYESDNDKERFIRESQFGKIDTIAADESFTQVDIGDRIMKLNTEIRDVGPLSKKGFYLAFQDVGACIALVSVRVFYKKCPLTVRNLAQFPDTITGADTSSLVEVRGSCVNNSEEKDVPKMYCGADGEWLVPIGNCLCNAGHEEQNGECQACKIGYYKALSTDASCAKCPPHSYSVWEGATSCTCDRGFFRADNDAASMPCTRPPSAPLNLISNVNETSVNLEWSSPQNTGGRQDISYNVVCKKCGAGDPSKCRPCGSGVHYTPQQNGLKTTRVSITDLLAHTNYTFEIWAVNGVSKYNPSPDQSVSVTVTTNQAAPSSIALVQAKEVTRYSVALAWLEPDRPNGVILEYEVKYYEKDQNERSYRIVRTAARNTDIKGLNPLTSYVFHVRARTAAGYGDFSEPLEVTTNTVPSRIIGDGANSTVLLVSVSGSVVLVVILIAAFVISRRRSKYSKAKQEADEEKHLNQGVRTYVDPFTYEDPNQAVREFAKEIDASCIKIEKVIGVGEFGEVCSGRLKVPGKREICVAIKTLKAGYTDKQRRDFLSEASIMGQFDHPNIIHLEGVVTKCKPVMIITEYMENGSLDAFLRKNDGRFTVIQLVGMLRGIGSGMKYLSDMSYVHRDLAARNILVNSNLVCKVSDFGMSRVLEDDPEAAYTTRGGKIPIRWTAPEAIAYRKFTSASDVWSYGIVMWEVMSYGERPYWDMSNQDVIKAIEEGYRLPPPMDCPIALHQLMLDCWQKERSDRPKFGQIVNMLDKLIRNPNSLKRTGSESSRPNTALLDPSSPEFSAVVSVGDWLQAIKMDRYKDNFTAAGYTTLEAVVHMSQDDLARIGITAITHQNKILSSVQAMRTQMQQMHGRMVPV
Description: Proof of mechanism: EphA4 phosphorylation in vivo in mouse brain (EphA4 immunoprecipitation, phospho-tyrosine Western blot). More on the design: species or system NMRI mice. As to conditions: i.v. dose 10 mg/kg; sacrificed 25 minutes or 1 hour after dosing; brain homogenate. The procedure:
Male NMRI mice were injected with relevant compounds at a dose of 10 mg/kg body weight and were sacrificed either 25 minutes or 1 hour following the dosing (0.25 h or 1 h shown in FIG. 4). The brains were removed and one half of each brain was weighed and homogenized in appropriate volume of lysis buffer for 30 seconds (10 seconds pulse and 10 seconds off—3 times). The homogenate was spun at 12,000 g for 30 minutes. Protein amounts were estimated for supernatants (using BCA) and equal amounts of protein for each condition were subjected to EphA4 immunoprecipitation followed by a phospho-tyrosine western blot. Four control animals were used and three experimental animals per time point were used for each of the compounds tested.
(In western blotting, separated proteins are transferred to a membrane and probed.)
In the case of `Cc1ccc(C(=O)Nc2cccc(C(F)(F)F)c2)cc1-c1ccc2ccncc2c1` [Compound 3, 3-Isoquinolin-7-yl-4-methyl-N-(3-trifluoromethyl-phenyl)-benzamide], the “EphA4 phosphorylation in vivo in mouse brain” value is on record as “block EphA4 phosphorylation in vivo in mouse brain”.

Test system in a further data set: not given
Test: not given
Conditions: not given
`Cc1ccc(NC(=O)c2cccc(C(F)(F)F)c2)cc1-c1ccc2ccncc2c1` [Compound 1, N-(3-Isoquinolin-7-yl-4-methyl-phenyl)-3-trifluoromethyl-benzamide] showed a melting point of 148 to 152 °C.
Take `Cc1ccc(NC(=O)c2cccc(C(F)(F)F)c2)cc1-c1ccc2ncsc2c1` [Compound 5, N-(3-Benzothiazol-6-yl-4-methyl-phenyl)-3-trifluoromethyl-benzamide]: the melting point fell in the range of 94 to 96 °C.
On the same count and under the same terms, for `Cc1ccc(C(=O)Nc2cccc(C(F)(F)F)c2)cc1-c1ccc2ncsc2c1` [Compound 6, 3-Benzothiazol-6-yl-4-methyl-N-(3-trifluoromethyl-phenyl)-benzamide] the value was 102 to 104 °C; for `Cc1ccc(NC(=O)c2cccc(C(F)(F)F)c2)cc1-c1ccc2cnncc2c1` [Compound 7, N-(4-Methyl-3-phthalazin-6-yl-phenyl)-3-trifluoromethyl-benzamide], 205 to 206 °C; for `Cc1ccc(C(=O)Nc2cccc(C(F)(F)F)c2)cc1-c1ccc2cnncc2c1` [Compound 8, 4-Methyl-3-phthalazin-6-yl-N-(3-trifluoromethyl-phenyl)-benzamide], 270 to 272 °C.
The same measure, in the same setting: for `Cc1ccc(NC(=O)c2cccc(C(F)(F)F)c2)cc1-c1ccc2scnc2c1` [Compound 9, N-(3-Benzothiazol-5-yl-4-methyl-phenyl)-3-trifluoromethyl-benzamide] the value was 90 to 93 °C.
On the same count and under the same terms, as for `Cc1ccc(C(=O)Nc2cccc(C(F)(F)F)c2)cc1-c1ccc2scnc2c1` [Compound 10, 3-Benzothiazol-5-yl-4-methyl-N-(3-trifluoromethylphenyl)benzamide], the figure is 200 to 202 °C.
